System: CT26.CL25 cells
Assay: Cell viability readout (CellTiter-Glo) with bacteria-free media
Type: cell-based, mouse
Settings: 10 nM compound, CT26.CL25 cells, 72 h, CellTiter-Glo
Experimental: Example 100: Cell-Based Assay of Bacterial Enzymes with Mammalian CT26.CL25 Mouse Colorectal Carcinoma Viability Readout
Bacteria-free media was incubated with the indicated test compound. ((R)—N1-(2-(methylamino)ethyl)-2-octanamidosuccinamide, a recognition element-linker conjugate lacking a payload, was serially diluted 1:1000 in DMSO and […] in medium+10% FBS to give a final concentration of 10 nM. Compound 35, Compound 76, Compound 77, Compound 78, Compound 79, and SN-38 were serially diluted 1:1000 in DMSO and 1:1000 in medium to give a final concentration of 10 nM, and then the bacteria-free supernatants were tested for their ability to kill mammalian cells. As an additional control, the test compound will also be incubated with bacteria-free media. The above steps can also be performed in the presence of E. coli (CFT073 ATCC 700928, Nissle 1917, or BL21 (DE3)) to effect cleavage of the conjugates of the application.
On Day 1, CT26.CL25 cells (15,000 cells/well) were seeded in triplicate into a 24 well plate and incubated overnight in 100 μL of complete medium. The reactions (bacteria or media blank) was pelleted by centrifugation, and then the supernatant was passed through a 0.2 μm sterile filter to remove residual bacteria.
On Day 2, 300 μL of a 10 nM solution of each compound in media were applied to separate wells of CT26.CL25 cells as prepared on Day 1. The cells were incubated at 37° C. for 72 h. After this point, viability was assessed using a CellTiter-Glo kit.
Binning of the compounds was achieved by measuring cell growth or arrest (e.g. remaining cells are >90% viable, >80% viable, >70% viable, >60% viable, >50% viable, >40% viable, >30% viable, >20% viable, or >10% viable).

For `CCCCCCCCCCCCCC(=O)N[C@H](CC(N)=O)C(=O)N[C@@H](C)CCC(=O)O[C@]1(CC)C(=O)OCc2c1cc1n(c2=O)Cc2c-1nc1ccc(O)cc1c2CC` [Example 35, (S)-4,11-diethyl-9-hydroxy-3,14-dioxo-3,4,12,14-tetrahydro-1H-pyrano[3′,4′:6,7]indolizino[1,2-b]quinolin-4-yl (S)-4-((R)-4-amino-4-oxo-2-tetradecanamidobutanamido)pentanoate], the “Bacteria-free media (Luminescence, average of three runs)” value was 380490.
